# According to ChEMBL document CHEMBL1151487, “DHPMP: a novel group I specific metabotropic glutamate receptor agonist” (Bioorg Med Chem Lett, 1996):
# How the values were obtained:
# [1] = Compound was evaluated for its activity at group I mGluRs for the generation of [3H]inositol phosphate using [3H]inositol pre-labelled guinea-pig cerebral cortex slices.; format: tissue-based, Cavia porcellus
# Cavia porcellus = species: Cavia porcellus; test: Compound was evaluated for inhibition of forskolin-stimulated cAMP generation at Group II and Group III mGluRs; format: functional
Structure (SMILES),Log EC50 [1],EC50 (Cavia porcellus) [µM]
N[C@H](C(=O)O)c1cc(O)cc(O)c1,-4.9,
NC(c1cc(O)cc(O)c1)[PH](=O)O (stereo not drawn),-4.56,2.09
